Laboratory results from ChEMBL document CHEMBL5724558, “Image-based profiling of drug vulnerabilities in CRC organoids” (2024).
Several values for one entry are separate records, joined by “and”; a condition that tells them apart may be missing. Equal values may be shown once.

How the values were obtained:
Assay type in all cases: functional, Homo sapiens
Design in all cases: dose or concentration left out as unconfirmed
Colon cancer organoid [1] = test: (§1) Image-based profiling of donated chemical probes and chemogenomic kinase set in O06 CRC organoid. Image analysis is performed on the sum area metric, and the data were normalized to the DMSO control. After imaging the organoid viability is measured using the OneGloEX Luciferase Assay System. The normalized viability data and sum area are reported.
Colon cancer organoid [2] = test: as §1, with “O21” for “O06”
Colon cancer organoid [3] = test: as §1, with “O09” for “O06”

Structure (SMILES)	Cell Viability (Colon cancer organoid [1]; Replication number 1)	Cell Viability (Colon cancer organoid [1]; Replication number 2)	Cell Viability (Colon cancer organoid [2]; Replication number 1)	Cell Viability (Colon cancer organoid [2]; Replication number 2)	Cell Viability (Colon cancer organoid [3]; Replication number 1)	Cell Viability (Colon cancer organoid [3]; Replication number 2)
Cl.Cl.c1ccc([C@@H]2C[C@H]2NC2CCNCC2)cc1	175.971% and 140.859%	170.528% and 119.251%	139.321% and 134.03%	128.492% and 116.527%	165.336% and 102.473%	183.388% and 100.348%
Cc1sc2c(c1C)C(c1ccc(Cl)cc1)=N[C@@H](CC(=O)NCCCCCCCCNC(=O)COc1cccc3c1C(=O)N(C1CCC(=O)NC1=O)C3=O)c1nnc(C)n1-2 (some centres undefined)	4.9545% and 11.7664%	6.03% and 10.6824%	41.9399% and 81.7113%	36.361% and 51.9272%	79.9563% and 42.1947%	86.5792% and 48.4637%
CN(C)CCCOc1ccc(-c2cc(NCCCn3cccn3)nc(S(C)(=O)=O)n2)cc1	164.335% and 134.819%	201.31% and 140.998%	93.735% and 87.002%	96.544% and 91.8258%	107.413% and 76.7388%	121.884% and 89.5154%
COc1cc(N(C)c2ccnc3ccc(C(F)(F)F)cc23)cc(OC)c1OC	100.25% and 97.181%	103.599% and 93.0279%	98.7422% and 93.5085%	96.4741% and 84.441%	149.162% and 94.0382%	152.627% and 99.9775%
CNCCN1CCC(c2cc(CN(C)C(=O)c3cccc(Oc4ccccc4)c3)ccn2)CC1	160.666% and 144%	179.321% and 118.056%	118.858% and 106.989%	108.266% and 112.768%	65.766% and 84.3895%	110.837% and 98.923%
COc1c(C)cc(NC(=O)c2nn(Cc3ccc(F)cc3)c3c2CN(C(=O)c2ccc[nH]2)C[C@]3(C)C(N)=O)cc1C	208.8% and 152.94%	183.011% and 147.451%	89.287% and 106.401%	91.8219% and 96.6587%	100.506% and 104.328%	74.723% and 85.5242%
Cc1nnc2c3ccccc3c(N[C@@H](C)[C@H](c3ccccc3)N(C)C)nn12	129.952% and 136.027%	163.32% and 118.295%	132.945% and 134.618%	79.559% and 84.8449%	148.648% and 110.587%	133.595% and 98.3529%
C[C@H]1CC(=O)Nc2cc(C(=O)NCCC3CC3)ccc2N1C(=O)N1CC2CC2C1 (some centres undefined)	181.689% and 143.275%	157.26% and 132.873%	104.914% and 116.982%	77.8753% and 111.158%	82.587% and 82.5348%	120.178% and 115.743%
CCCCN(Cc1ccccc1)C(=O)c1ccc(S(=O)(=O)Nc2ccccc2)cc1	128.543% and 118.777%	114.906% and 147.848%	85.4191% and 92.3751%	113.731% and 107.676%	116.29% and 115.073%	99.5038% and 96.018%
COc1cc(OC)cc(-c2noc(N3CCN(C)C4(CCN(c5ccnc(C)c5)CC4)C3)n2)c1	99.0993% and 95.9195%	203.392% and 146.256%	102.094% and 140.496%	79.0091% and 95.0477%	147.791% and 90.4173%	237.296% and 126.576%
CNc1cc(Oc2cc(C(=O)Nc3cc(N4CCN(C)CC4)cc(C(F)(F)F)c3)ccc2C)ncn1	159.785% and 126.415%	134.323% and 110.437%	91.6844% and 105.366%	86.288% and 119.755%	67.5725% and 54.8543%	89.2328% and 78.5558%
CC1=C(C)C(=O)C(C(C)(C)CC(=O)N(CCCCSC[C@H]2O[C@@H](n3cnc4c(N)ncnc43)[C@@H]3OC(C)(C)O[C@@H]32)Cc2cccc(-c3ccc(Cl)cc3)c2)=C(C)C1=O	141.238% and 103.893%	153.713% and 129.049%	97.336% and 122.861%	82.8638% and 97.7327%	93.185% and 86.476%	68.1346% and 85.8093%
COc1cc(C(=O)N2CC[C@@H](O)[C@@H](N)C2)cc2nc(-c3cc4ccccc4n3CC3CC3)n(C)c12.Cl	141.855% and 120.564%	139.679% and 135.263%	95.6097% and 101.11%	84.8651% and 86.9928%	108.535% and 117.543%	77.7437% and 99.4932%
CC1=C(C)C(=O)C(C(C)(C)CC(=O)N(CCCCSC[C@H]2O[C@@H](n3cnc4c(N)ncnc43)[C@H](O)[C@@H]2O)Cc2cccc(-c3ccc(Cl)cc3)c2)=C(C)C1=O	167.397% and 142.309%	129.695% and 107.541%	85.391% and 116.982%	82.6503% and 80.5489%	154.166% and 104.56%	134.087% and 102.344%
